In PubChem BioAssay AID248 (DTP/NCI, 2004):
Where “and” joins values, the source holds several entries; their conditions need not be identical. Equal values may be shown once. Toxic doses and inconclusive results are not listed. Cut-off read from the data, not from the text of the source: active = T/C of 150% or more; inactive = T/C below 125%.

System: L1210 leukemia ip in BDF1 mice, survival T/C
Assay: NCI In Vivo Anticancer Drug Screen. Data for tumor model L1210 Leukemia (intraperitoneal) in B6D2F1 (BDF1) mice
Settings: endpoint: mean survival time, higher = longer survival
Summary of the method: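 Ratio derived from survival: compound-dosed mice over vehicle-dosed mice, all bearing a transplantable tumor.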

[1] = dose: 100.0 mg/kg/injection, schedule: Q01DX009 (ip), vehicle: saline with Tween-80
[2] = dose: 100.0 mg/kg/injection, schedule: Q04DX003 (ip), vehicle: saline with Tween-80
[3] = dose: 200.0 mg/kg/injection, schedule: Q04DX003 (ip), vehicle: saline with Tween-80
[4] = dose: 400.0 mg/kg/injection, schedule: Q04DX003 (ip), vehicle: saline with Tween-80
[5] = dose: 100.0 mg/kg/injection, schedule: Q01DX001 (ip), vehicle: carboxymethylcellulose (CMC)
[6] = dose: 200.0 mg/kg/injection, schedule: Q01DX001 (ip), vehicle: carboxymethylcellulose (CMC)
[7] = dose: 400.0 mg/kg/injection, schedule: Q01DX001 (ip), vehicle: carboxymethylcellulose (CMC)
[8] = dose: 100.0 mg/kg/injection, schedule: Q01DX001 (ip), vehicle: saline
[9] = dose: 200.0 mg/kg/injection, schedule: Q01DX001 (ip), vehicle: saline
[10] = dose: 25.0 mg/kg/injection, schedule: Q01DX009 (ip), vehicle: saline with Tween-80
[11] = dose: 50.0 mg/kg/injection, schedule: Q01DX009 (ip), vehicle: saline with Tween-80
[12] = dose: 100.0 mg/kg/injection, schedule: Q01DX009 (ip), vehicle: Klucel (hydroxypropylcellulose) (HPC)
[13] = dose: 100.0 mg/kg/injection, schedule: Q04DX003 (ip), vehicle: Klucel (hydroxypropylcellulose) (HPC)
[14] = dose: 200.0 mg/kg/injection, schedule: Q01DX009 (ip), vehicle: Klucel (hydroxypropylcellulose) (HPC)
[15] = dose: 200.0 mg/kg/injection, schedule: Q04DX003 (ip), vehicle: Klucel (hydroxypropylcellulose) (HPC)
[16] = dose: 400.0 mg/kg/injection, schedule: Q01DX009 (ip), vehicle: Klucel (hydroxypropylcellulose) (HPC)
[17] = dose: 400.0 mg/kg/injection, schedule: Q04DX003 (ip), vehicle: Klucel (hydroxypropylcellulose) (HPC)

Measured: T/C

Cc1cc(C)c([I+]c2c(C)cc(C)cc2C)c(C)c1
inactive: dose: 0.12 mg/kg/injection, schedule: Q01DX009 (ip), vehicle: saline 102 % of control | dose: 0.25 mg/kg/injection, schedule: Q01DX009 (ip), vehicle: saline 111 % of control | dose: 0.5 mg/kg/injection, schedule: Q01DX001 (ip), vehicle: saline 90 % of control | dose: 0.5 mg/kg/injection, schedule: Q01DX009 (ip), vehicle: saline 122 % of control | dose: 0.5 mg/kg/injection, schedule: Q01DX015 (ip), vehicle: saline 100 % of control | dose: 0.5 mg/kg/injection, schedule: Q04DX003 (ip), vehicle: acetone 111 % of control | dose: 1.0 mg/kg/injection, schedule: Q01DX001 (ip), vehicle: saline 101 % of control | dose: 1.0 mg/kg/injection, schedule: Q01DX015 (ip), vehicle: saline 96 % of control | dose: 2.0 mg/kg/injection, schedule: Q01DX001 (ip), vehicle: saline 92 % of control | dose: 2.0 mg/kg/injection, schedule: Q01DX015 (ip), vehicle: saline 102 % of control | dose: 4.0 mg/kg/injection, schedule: Q01DX015 (ip), vehicle: saline 103 % of control

CC1=C(C)C(=O)c2c(OC(=O)c3ccccc3)ccc(OC(=O)c3ccccc3)c2C1=O
inactive: dose: 12.5 mg/kg/injection, schedule: Q01DX009 (ip), vehicle: saline 100 % of control | dose: 25.0 mg/kg/injection, schedule: Q01DX009 (ip), vehicle: saline 99 % of control | dose: 50.0 mg/kg/injection, schedule: Q01DX009 (ip), vehicle: saline 92 % of control | dose: 50.0 mg/kg/injection, schedule: Q04DX003 (ip), vehicle: saline 95 % of control | dose: 100.0 mg/kg/injection, schedule: Q01DX009 (ip), vehicle: saline 92 % of control | dose: 100.0 mg/kg/injection, schedule: Q04DX003 (ip), vehicle: saline 98 % of control and 91 % of control | dose: 200.0 mg/kg/injection, schedule: Q01DX009 (ip), vehicle: saline 87 % of control | dose: 200.0 mg/kg/injection, schedule: Q04DX003 (ip), vehicle: saline 90 % of control | dose: 400.0 mg/kg/injection, schedule: Q04DX003 (ip), vehicle: saline 92 % of control and 91 % of control

CN(C)CCc1ccccc1
inactive: dose: 25.6 mg/kg/injection, schedule: Q04DX002 (ip), vehicle: saline with Tween-80 100 % of control | dose: 64.0 mg/kg/injection, schedule: Q04DX002 (ip), vehicle: saline with Tween-80 103 % of control | [1] 100 % of control | [2] 102 % of control | dose: 160.0 mg/kg/injection, schedule: Q04DX002 (ip), vehicle: saline with Tween-80 103 % of control | dose: 200.0 mg/kg/injection, schedule: Q01DX009 (ip), vehicle: saline with Tween-80 95 % of control | [3] 102 % of control | dose: 400.0 mg/kg/injection, schedule: Q04DX002 (ip), vehicle: saline with Tween-80 100 % of control | [4] 100 % of control

CCCC1(C(=O)OCC)CCCC1=O (centres undefined)
inactive: [5] 95 % of control | [6] 90 % of control | [7] 92 % of control

O=C1c2ccccc2C(=O)C1(Br)Br
inactive: dose: 50.0 mg/kg/injection, schedule: Q01DX001 (ip), vehicle: saline 106 % of control | [8] 97 % of control | [9] 101 % of control

O=c1[nH]c(=O)n(Cc2ccccc2)cc1Cc1ccccc1
inactive: [2] 106 % of control | [3] 98 % of control | [4] 101 % of control

CCOC(CN1CCCCC1)c1ccccc1 (centres undefined)
inactive: dose: 12.5 mg/kg/injection, schedule: Q01DX009 (ip), vehicle: saline with Tween-80 98 % of control | [10] 102 % of control | [11] 100 % of control

CSc1nc(NN(C)C)c2[nH]c(C)nc2n1
inactive: [8] 92 % of control | [9] 97 % of control

O=C(Nc1ccc([N+](=O)[O-])cc1)Oc1c(Cl)cc(Cl)c(Cl)c1[N+](=O)[O-]
inactive: dose: 25.0 mg/kg/injection, schedule: Q04DX002 (ip), vehicle: Klucel (hydroxypropylcellulose) (HPC) 112 % of control | dose: 50.0 mg/kg/injection, schedule: Q04DX002 (ip), vehicle: Klucel (hydroxypropylcellulose) (HPC) 97 % of control | dose: 100.0 mg/kg/injection, schedule: Q04DX002 (ip), vehicle: Klucel (hydroxypropylcellulose) (HPC) 94 % of control and 90 % of control

NC(CCCCN=Cc1ccccc1O)C(=O)O (centres undefined)
inactive: [8] 95 % of control | [9] 92 % of control | dose: 400.0 mg/kg/injection, schedule: Q01DX001 (ip), vehicle: saline 91 % of control

O=C1NC(=O)/C(=C/c2ccccc2)N1
inactive: [12] 96 % of control | [13] 104 % of control | [14] 98 % of control | [15] 96 % of control | [16] 102 % of control | [17] 96 % of control

CCCCC(=O)N/N=C\c1cc([N+](=O)[O-])ccc1O
inactive: [5] 91 % of control | [6] 98 % of control | [7] 87 % of control

CCCCCCCCCCCCOC(=O)/C=C\C(=O)NC(N)=O
inactive: dose: 25.0 mg/kg/injection, schedule: Q04DX003 (ip), vehicle: Klucel (hydroxypropylcellulose) (HPC) 102 % of control | dose: 50.0 mg/kg/injection, schedule: Q04DX003 (ip), vehicle: Klucel (hydroxypropylcellulose) (HPC) 97 % of control | [13] 105 % of control and 91 % of control | dose: 150.0 mg/kg/injection, schedule: Q04DX003 (ip), vehicle: Klucel (hydroxypropylcellulose) (HPC) 96 % of control

CN(C)c1ccc2c(c1)Cc1cc(NC(N)=O)ccc1-2
inactive: [5] 115 % of control | [6] 96 % of control | [7] 91 % of control

COc1ccc(Cl)cc1NC(=O)Nc1ccc(S(N)(=O)=O)cc1
inactive: [12] 102 % of control | [14] 93 % of control | [16] 94 % of control

c1ccc2c(c1)ccc1c[n+]3c4ccccc4ccc3n12
inactive: dose: 0.62 mg/kg/injection, schedule: Q01DX009 (ip), vehicle: saline 105 % of control | dose: 1.25 mg/kg/injection, schedule: Q01DX009 (ip), vehicle: saline 113 % of control | dose: 2.5 mg/kg/injection, schedule: Q01DX009 (ip), vehicle: saline 123 % of control | dose: 5.0 mg/kg/injection, schedule: Q04DX003 (ip), vehicle: saline 106 % of control | dose: 10.0 mg/kg/injection, schedule: Q01DX001 (ip), vehicle: saline 109 % of control | dose: 20.0 mg/kg/injection, schedule: Q01DX001 (ip), vehicle: saline 105 % of control

CCCCOP(=O)(CCl)OCCCC
inactive: [12] 98 % of control | [13] 97 % of control | [14] 103 % of control | [15] 97 % of control | [17] 95 % of control

S=P(=Nc1ccccc1)c1ccccc1 (centres undefined)
inactive: dose: 100.0 mg/kg/injection, schedule: Q01DX001 (ip), vehicle: Klucel (hydroxypropylcellulose) (HPC) 91 % of control | dose: 200.0 mg/kg/injection, schedule: Q01DX001 (ip), vehicle: Klucel (hydroxypropylcellulose) (HPC) 89 % of control | dose: 400.0 mg/kg/injection, schedule: Q01DX001 (ip), vehicle: Klucel (hydroxypropylcellulose) (HPC) 88 % of control

C=CCCCCCCCCC(=O)N(CCOC)CCOC
inactive: [10] 96 % of control | [11] 100 % of control | [1] 100 % of control and 91 % of control

C=C(Cl)c1c(C)cc(C)c(CC#N)c1C
inactive: dose: 12.5 mg/kg/injection, schedule: Q01DX009 (ip), vehicle: DMSO 92 % of control | dose: 12.5 mg/kg/injection, schedule: Q04DX003 (ip), vehicle: DMSO 87 % of control | dose: 25.0 mg/kg/injection, schedule: Q01DX009 (ip), vehicle: DMSO 92 % of control | dose: 25.0 mg/kg/injection, schedule: Q04DX003 (ip), vehicle: DMSO 93 % of control | dose: 50.0 mg/kg/injection, schedule: Q04DX003 (ip), vehicle: DMSO 93 % of control | dose: 200.0 mg/kg/injection, schedule: Q04DX003 (ip), vehicle: DMSO 87 % of control

CNC(=O)N/N=C(C)\C=N\NC(=O)NC
inactive: dose: 75.0 mg/kg/injection, schedule: Q01DX001 (ip), vehicle: saline 97 % of control | dose: 150.0 mg/kg/injection, schedule: Q01DX001 (ip), vehicle: saline 108 % of control | dose: 300.0 mg/kg/injection, schedule: Q01DX001 (ip), vehicle: saline 92 % of control
